Values of other authors as cited in patent publication US20220354806A1, “COMPOSITION FOR IMPROVING MEMORY” (BGG JAPAN CO., LTD., priority 2019, published 2022).

Assays:
[1] = placebo group ingesting corn oil
[2] = greater than that of a vitamin E
[3] = after ingesting compared with before ingesting; no placebo comparison

Which results are given for `CC1=C(/C=C/C(C)=C/C=C/C(C)=C/C=C/C=C(C)/C=C/C=C(C)/C=C/C2=C(C)C(=O)C(O)CC2(C)C)C(C)(C)CC(O)C1=O` (stereo not drawn) [astaxanthin, 3,3′-dihydroxy-β,β-carotene-4,4′-dione]?
improvement effect on the human cognitive function, astaxanthin group vs placebo group [1]: a significant difference of the improvement effect on the human cognitive function is not confirmed; anti-oxidation effect relative to vitamin E [2]: 1000 times; correct answer rate in the operation of the "working memory" [3]: improved; response time of all 5 operations (simple reaction, choice reaction, working memory, delayed recall, divided attention) [3]: improved
